In patent US20200165257A1, “INHIBITORS OF PHOSPHOINOSITIDE 3-KINASE AND HISTONE DEACETYLASE FOR TREATMENT OF CANCER” (THE UNITED STATES OF AMERICA, AS REPRESENTED BY THE …, priority 2017, published 2020):
pIC50: −log10 of the molar value.

Tests used:
Type in all cases: biochemical
[1] = biological target: PI3Kδ (Homo sapiens, UniProt O00329); assay: PI3Kδ kinase assay (HTRF); conditions: for pIC50: symbols ++ / +, read-out: PI3Kδ Inhibition Activity (IC50 class); for inhibition at 1 µM: symbols ** / *, read-out: PI3Kδ Inhibition Activity (% Inhibition class)
PI3Kδ, sequence (O00329 whole entry): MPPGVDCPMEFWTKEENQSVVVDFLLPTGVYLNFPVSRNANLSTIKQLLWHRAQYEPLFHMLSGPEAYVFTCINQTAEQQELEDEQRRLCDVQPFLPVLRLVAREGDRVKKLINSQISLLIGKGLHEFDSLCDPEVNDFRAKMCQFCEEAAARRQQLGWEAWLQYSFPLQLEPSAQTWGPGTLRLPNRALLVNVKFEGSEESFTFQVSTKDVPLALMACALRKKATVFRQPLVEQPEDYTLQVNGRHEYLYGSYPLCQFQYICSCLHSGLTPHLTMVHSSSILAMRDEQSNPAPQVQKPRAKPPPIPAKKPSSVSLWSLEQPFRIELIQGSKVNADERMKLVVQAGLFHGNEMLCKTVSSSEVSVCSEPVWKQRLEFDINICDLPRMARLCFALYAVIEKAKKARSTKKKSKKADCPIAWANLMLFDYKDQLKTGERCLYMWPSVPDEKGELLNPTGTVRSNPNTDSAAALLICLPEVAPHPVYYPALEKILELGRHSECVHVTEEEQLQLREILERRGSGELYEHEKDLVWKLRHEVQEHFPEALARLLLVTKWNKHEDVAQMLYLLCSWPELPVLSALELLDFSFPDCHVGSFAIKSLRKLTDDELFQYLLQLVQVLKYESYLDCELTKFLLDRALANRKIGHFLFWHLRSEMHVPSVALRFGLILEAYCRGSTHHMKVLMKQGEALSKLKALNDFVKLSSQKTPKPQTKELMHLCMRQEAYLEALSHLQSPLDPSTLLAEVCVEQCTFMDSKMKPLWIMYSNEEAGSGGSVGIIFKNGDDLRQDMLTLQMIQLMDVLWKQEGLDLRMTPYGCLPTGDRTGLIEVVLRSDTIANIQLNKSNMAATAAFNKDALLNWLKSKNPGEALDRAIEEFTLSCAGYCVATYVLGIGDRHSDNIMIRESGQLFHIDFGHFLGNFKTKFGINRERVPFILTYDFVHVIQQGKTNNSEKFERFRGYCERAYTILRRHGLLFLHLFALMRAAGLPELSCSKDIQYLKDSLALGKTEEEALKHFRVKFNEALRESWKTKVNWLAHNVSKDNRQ
PI3Kδ, sequence (P27986 whole entry partner): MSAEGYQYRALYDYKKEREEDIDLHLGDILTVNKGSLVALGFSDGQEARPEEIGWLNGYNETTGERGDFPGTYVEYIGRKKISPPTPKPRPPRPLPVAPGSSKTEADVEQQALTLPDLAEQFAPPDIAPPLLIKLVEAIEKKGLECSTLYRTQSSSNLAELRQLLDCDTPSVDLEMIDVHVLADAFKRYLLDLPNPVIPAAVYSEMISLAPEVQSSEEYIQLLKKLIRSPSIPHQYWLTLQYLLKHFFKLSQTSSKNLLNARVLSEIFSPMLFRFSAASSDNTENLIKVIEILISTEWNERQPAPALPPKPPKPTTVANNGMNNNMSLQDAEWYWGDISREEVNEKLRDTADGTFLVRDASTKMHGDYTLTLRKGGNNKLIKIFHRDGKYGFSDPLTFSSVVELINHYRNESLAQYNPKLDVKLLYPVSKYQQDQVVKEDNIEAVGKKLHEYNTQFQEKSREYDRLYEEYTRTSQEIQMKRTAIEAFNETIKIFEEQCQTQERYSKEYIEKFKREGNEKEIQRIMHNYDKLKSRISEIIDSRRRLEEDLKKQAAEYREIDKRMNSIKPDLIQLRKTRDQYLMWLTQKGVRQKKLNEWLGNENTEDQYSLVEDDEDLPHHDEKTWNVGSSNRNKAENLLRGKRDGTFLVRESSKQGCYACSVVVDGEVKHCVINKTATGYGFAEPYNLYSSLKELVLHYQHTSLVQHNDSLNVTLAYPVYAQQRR
Description: (§1) The PIP3 product is detected by displacement of biotin-PIP3 from an energy transfer complex consisting of Europium labeled anti-GST monoclonal antibody, a GST-tagged pleckstrin homology (PH) domain, biotinylated PIP3 and Streptavidin-Allophycocyanin (APC). […] The PIP3 product formed by PI 3-Kinase(h) activity displaces biotin-PIP3 from the complex resulting in a loss of energy transfer, and thus, a decrease in signal.
(§2) First, the kinase reaction with PIP2 substrate is carried out in the presence of ATP, and the reaction is quenched with stop Solution, and then, finally detect by adding Detection Mixture followed by incubation.
(§3) HEPES 50 mM (pH7.0), NaN3 0.02%, BSA 0.01%, Orthovanadate 0.1 mM, 1% DMSO.
(§4) Detection buffer: HEPES 10 mM (pH7.0), BSA 0.02%, KF 0.16 M, EDTA 4 mM.
(§5) 10 μM PIP2 substrate (PI(4,5)P2)
(§6) 10 μM ATP under standard conditions
(§7) 1. Prepare substrate in freshly prepared Reaction Buffer.
(§8) 2. Deliver kinase into the substrate solution and gently mix.
(§9) 3. Deliver compounds in 100% DMSO into the kinase reaction mixture by Acoustic technology (Echo550; nanoliter range), incubate for 10 min at room temperature.
(§10) 4. Deliver ATP into the reaction mixture to initiate the reaction.
(§11) 5. Incubate for 30 min at 30° C.
(§12) 6. Quench the reaction with Stop Solution.
(§13) 7. Add Detection Mixture, and incubate for overnight.
(§14) The emission ratio is converted into μM PIP3 production based on PIP3 standard curves.
(§15) The nonlinear regression to obtain the standard curve and IC50 values are performed using Graphpad Prism software.

[2] = biological target: T1, HDAC6 (Homo sapiens, UniProt Q9UBN7); assay: HDAC Fluorescent Activity Assay; conditions: for pIC50: symbols ++ / +, read-out: HDAC6 Inhibition Activity (IC50 class); for inhibition at 1 µM: symbols ** / *, read-out: HDAC6 Inhibition Activity (% Inhibition class)
T1 sequence (Q9UBN7 1-1215): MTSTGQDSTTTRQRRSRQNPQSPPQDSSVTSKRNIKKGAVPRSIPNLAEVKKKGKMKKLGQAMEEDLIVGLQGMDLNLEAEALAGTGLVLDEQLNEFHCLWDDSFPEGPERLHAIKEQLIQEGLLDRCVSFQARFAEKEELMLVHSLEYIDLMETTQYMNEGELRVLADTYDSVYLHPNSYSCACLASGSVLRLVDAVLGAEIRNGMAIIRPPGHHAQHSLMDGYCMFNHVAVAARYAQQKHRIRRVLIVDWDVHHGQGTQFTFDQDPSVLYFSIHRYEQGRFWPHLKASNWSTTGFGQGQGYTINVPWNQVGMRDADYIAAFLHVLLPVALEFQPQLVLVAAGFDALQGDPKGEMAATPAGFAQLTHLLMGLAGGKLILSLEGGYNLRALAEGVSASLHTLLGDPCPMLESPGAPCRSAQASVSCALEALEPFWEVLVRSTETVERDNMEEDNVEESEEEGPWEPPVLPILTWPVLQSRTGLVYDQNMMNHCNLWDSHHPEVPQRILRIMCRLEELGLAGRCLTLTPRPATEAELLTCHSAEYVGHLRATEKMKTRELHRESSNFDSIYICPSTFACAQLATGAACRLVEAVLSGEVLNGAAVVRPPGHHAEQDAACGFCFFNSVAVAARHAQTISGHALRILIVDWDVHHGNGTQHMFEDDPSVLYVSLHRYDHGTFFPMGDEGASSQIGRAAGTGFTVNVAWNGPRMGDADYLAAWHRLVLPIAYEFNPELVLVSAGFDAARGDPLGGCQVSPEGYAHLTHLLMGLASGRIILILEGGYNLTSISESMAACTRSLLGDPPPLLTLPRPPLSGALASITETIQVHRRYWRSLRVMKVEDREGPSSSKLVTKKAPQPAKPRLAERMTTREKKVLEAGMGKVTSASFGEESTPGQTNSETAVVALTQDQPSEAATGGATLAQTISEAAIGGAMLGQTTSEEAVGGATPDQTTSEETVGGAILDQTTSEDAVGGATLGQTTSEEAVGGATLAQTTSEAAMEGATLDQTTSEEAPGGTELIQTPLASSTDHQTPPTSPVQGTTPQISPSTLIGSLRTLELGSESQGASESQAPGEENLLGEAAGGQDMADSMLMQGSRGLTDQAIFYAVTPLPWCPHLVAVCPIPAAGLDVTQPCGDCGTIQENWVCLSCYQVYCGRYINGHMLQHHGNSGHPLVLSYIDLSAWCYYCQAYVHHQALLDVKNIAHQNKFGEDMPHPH
Description: This protocol is to determine the IC50s or percentage of inhibition values of the test compound against HDACs.
The HDAC Fluorescent Activity Assay is based on the unique Fluorogenic Substrate and Developer combination. […] First, the Fluorogenic Substrate, which comprises an acetylated lysine side chain, is incubated with a purified HDAC enzyme. Deacetylation of the substrate sensitizes the substrate so that, in the second step, treatment with the Developer produces a fluorophore.
Testing compounds were dissolved in 100% DMSO to specific concentration. […]
1. Deliver 2× enzyme in wells of reaction plate except No Enzyme control wells. Add buffer in No En wells.
2. Deliver compounds in 100% DMSO into the enzyme mixture by Acoustic technology (Echo550; nanoliter range). Spin down and pre-incubation.
3. Deliver 2× Substrate Mixture (Fluorogenic HDAC Substrate and co-factor if applicable) in all reaction wells to initiate the reaction. Spin and shake.
4. Incubate for 1-2 hr at 30° C. with seal.
5. Add Developer with Trichostatin A (or TMP269) to stop the reaction and to generate fluorescent color.
6. Fluorescence was read (excitatory, 360; emission, 460) using the EnVision Multilabel
7. Take endpoint reading for analysis after the development reaches plateau.
The percentages of enzyme activity (relative to DMSO controls) and IC50 values were calculated using the GraphPad Prism 4 program based on a sigmoidal dose-response equation.

[3] = biological target: PI3Kα (Homo sapiens, UniProt P42336); assay: PI3Kα kinase assay (HTRF)
PI3Kα, sequence (P42336 whole entry): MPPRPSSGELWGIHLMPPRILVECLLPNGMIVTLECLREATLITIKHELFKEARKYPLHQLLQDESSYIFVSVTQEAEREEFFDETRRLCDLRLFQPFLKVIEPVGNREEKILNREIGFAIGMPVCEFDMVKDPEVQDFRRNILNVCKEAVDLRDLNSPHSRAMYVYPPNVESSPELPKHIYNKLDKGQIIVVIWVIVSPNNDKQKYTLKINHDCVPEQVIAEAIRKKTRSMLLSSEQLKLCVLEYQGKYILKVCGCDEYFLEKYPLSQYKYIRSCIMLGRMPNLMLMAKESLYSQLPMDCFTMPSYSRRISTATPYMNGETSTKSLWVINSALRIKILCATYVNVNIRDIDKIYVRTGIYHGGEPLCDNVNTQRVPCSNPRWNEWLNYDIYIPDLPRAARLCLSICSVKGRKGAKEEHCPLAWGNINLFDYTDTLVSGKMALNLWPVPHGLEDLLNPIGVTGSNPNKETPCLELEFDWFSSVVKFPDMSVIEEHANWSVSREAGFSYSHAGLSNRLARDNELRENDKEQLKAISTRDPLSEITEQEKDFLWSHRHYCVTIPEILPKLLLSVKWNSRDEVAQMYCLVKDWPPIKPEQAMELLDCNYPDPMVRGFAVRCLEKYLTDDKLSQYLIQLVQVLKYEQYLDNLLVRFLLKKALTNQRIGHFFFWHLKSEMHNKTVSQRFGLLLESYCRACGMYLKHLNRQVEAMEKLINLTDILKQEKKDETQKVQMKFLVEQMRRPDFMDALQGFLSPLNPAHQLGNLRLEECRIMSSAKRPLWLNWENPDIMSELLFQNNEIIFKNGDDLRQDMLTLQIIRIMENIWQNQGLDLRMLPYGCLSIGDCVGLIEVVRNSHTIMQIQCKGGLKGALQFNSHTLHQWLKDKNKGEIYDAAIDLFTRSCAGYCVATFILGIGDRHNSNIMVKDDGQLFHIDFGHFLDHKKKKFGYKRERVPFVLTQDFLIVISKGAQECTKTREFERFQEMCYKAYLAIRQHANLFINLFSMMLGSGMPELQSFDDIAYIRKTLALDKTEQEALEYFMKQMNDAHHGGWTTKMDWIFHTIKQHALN
PI3Kα, sequence (P27986 whole entry partner): as the sequence (P27986 whole entry partner) above
Description: as §1, §2, §3, §4, §5, §6, §7, §8, §9, §10, §11, §12, §13, §14, §15

[4] = biological target: PI3Kβ (Homo sapiens, UniProt P42338); assay: PI3Kβ kinase assay (HTRF)
PI3Kβ, sequence (P42338 whole entry): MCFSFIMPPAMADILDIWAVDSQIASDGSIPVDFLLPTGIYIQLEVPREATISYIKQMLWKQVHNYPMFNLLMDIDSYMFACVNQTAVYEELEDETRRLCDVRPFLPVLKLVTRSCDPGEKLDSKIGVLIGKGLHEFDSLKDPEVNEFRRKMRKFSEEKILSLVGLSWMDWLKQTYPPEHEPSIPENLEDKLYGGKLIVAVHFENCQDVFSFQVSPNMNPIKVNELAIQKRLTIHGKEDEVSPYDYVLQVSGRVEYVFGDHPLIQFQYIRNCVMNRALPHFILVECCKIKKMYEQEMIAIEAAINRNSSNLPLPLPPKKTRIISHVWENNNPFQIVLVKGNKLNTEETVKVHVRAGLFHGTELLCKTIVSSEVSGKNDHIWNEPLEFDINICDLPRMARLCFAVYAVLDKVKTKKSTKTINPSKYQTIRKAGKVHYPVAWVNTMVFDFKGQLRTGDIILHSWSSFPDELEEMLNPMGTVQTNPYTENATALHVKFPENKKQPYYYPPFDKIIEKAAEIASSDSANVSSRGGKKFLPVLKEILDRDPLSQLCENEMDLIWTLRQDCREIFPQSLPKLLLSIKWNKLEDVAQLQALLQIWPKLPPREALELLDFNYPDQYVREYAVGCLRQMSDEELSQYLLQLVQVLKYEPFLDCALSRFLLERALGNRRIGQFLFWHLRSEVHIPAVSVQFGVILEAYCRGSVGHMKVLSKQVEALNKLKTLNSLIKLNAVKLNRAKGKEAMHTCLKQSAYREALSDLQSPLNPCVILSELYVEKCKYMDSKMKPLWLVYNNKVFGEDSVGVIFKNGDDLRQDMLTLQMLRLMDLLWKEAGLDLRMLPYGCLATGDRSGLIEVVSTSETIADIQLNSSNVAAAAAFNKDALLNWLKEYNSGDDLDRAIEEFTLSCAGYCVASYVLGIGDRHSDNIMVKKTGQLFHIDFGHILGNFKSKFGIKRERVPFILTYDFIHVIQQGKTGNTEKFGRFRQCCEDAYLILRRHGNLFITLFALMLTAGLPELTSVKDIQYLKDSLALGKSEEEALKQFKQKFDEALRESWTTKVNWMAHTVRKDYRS
PI3Kβ, sequence (P27986 whole entry partner): as the sequence (P27986 whole entry partner) above
Description: as §1, §2, §3, §4, §5, §6, §7, §8, §9, §10, §11, §12, §13, §14, §15

[5] = biological target: PI3Kγ (Homo sapiens, UniProt P48736); assay: PI3Kγ kinase assay (HTRF)
PI3Kγ, sequence (P48736 whole entry): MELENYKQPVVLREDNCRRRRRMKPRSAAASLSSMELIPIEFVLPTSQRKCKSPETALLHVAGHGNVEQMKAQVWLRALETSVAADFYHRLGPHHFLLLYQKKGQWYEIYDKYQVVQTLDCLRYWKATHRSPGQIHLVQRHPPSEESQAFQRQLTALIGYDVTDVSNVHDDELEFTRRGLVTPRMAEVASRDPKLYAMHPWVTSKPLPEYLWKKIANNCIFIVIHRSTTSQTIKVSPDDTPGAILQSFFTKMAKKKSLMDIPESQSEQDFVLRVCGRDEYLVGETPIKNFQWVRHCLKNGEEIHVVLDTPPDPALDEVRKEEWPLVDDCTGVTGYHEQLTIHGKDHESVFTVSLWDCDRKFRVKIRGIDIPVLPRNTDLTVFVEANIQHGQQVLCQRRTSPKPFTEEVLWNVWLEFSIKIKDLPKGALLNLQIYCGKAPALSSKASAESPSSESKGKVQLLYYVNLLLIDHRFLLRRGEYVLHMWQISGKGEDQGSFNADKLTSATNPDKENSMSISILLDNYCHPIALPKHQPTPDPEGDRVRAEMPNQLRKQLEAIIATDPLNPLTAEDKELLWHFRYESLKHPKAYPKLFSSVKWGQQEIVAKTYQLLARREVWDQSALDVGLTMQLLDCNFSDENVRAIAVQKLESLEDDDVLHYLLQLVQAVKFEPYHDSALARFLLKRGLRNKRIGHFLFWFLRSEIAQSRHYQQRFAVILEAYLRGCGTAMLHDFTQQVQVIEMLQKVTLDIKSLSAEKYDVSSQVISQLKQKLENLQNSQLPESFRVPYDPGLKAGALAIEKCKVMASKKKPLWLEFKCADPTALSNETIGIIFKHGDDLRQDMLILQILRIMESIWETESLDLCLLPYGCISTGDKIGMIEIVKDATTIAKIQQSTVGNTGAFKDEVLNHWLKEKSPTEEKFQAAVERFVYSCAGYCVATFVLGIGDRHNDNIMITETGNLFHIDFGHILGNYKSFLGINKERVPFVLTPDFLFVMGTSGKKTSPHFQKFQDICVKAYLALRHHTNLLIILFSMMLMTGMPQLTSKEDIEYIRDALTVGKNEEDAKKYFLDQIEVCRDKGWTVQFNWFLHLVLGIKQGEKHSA
Description: as §1, §2, §3, §4, §5, §6, §7, §8, §9, §10, §11, §12, §13, §14, §15

SMILES	pIC50 [1]	pIC50 [2]	inhibition at 1 µM [2]	inhibition at 1 µM [1]	inhibition at 1 µM [3]	inhibition at 1 µM [4]	inhibition at 1 µM [5]
CC[C@H](Nc1nc(N)nc(C)c1C#N)c1nc2cccc(N3CCC(CCC(=O)NO)CC3)c2c(=O)n1-c1ccccc1 [Compound L, (S)-3-(1-(2-(1-((2-amino-5-cyano-6-methylpyrimidin-4-yl)amino)propyl)-4-oxo-3-phenyl-3,4-dihydroquinazolin-5-yl)piperidin-4-yl)-N-hydroxypropanamide]	> 7.00	> 7.00	–	–	–	–	–
CC[C@H](Nc1nc(N)nc(C)c1C#N)c1nc2cccc(N(C)Cc3ccc(C(=O)NO)cc3)c2c(=O)n1-c1ccccc1 [LI, (S)-4-(((2-(1-((2-amino-5-cyano-6-methylpyrimidin-4-yl)amino)propyl)-4-oxo-3-phenyl-3,4-dihydroquinazolin-5-yl)(methyl)amino)methyl)-N-hydroxybenzamide]	> 7.00	> 7.00	–	–	–	–	–
CC[C@H](Nc1nc(N)nc(C)c1C#N)c1nc2cccc(C#CCCCC(=O)NO)c2c(=O)n1-c1ccccc1 [LVI, (S)-6-(2-(1-((2-amino-5-cyano-6-methylpyrimidin-4-yl)amino)propyl)-4-oxo-3-phenyl-3,4-dihydroquinazolin-5-yl)-N-hydroxyhex-5-ynamide]	> 7.00	–	> 90%	–	–	–	–
CC[C@H](Nc1ncnc(N)c1C(N)=O)c1nc2cccc(NCc3ccc(C(=O)NO)cn3)c2c(=O)n1-c1ccccc1 [LVII, (S)-4-amino-6-((1-(5-(((5-(hydroxycarbamoyl)pyridin-2-yl)methyl)amino)-4-oxo-3-phenyl-3,4-dihydroquinazolin-2-yl)propyl)amino)pyrimidine-5-carboxamide]	< 7.00	> 7.00	–	–	–	–	–
O=C(NO)c1ccc(CNc2cccc3nc(C4CC4)n(-c4ccccc4)c(=O)c23)cc1 [LXI, 4-(((2-cyclopropyl-4-oxo-3-phenyl-3,4-dihydroquinazolin-5-yl)amino)methyl)-N-hydroxybenzamide]	–	> 7.00	–	–	–	–	–
Cc1nc2cccc(NCCCCC(=O)NO)c2c(=O)n1-c1ccccc1 [LXII, N-hydroxy-5-((2-methyl-4-oxo-3-phenyl-3,4-dihydroquinazolin-5-yl)amino)pentanamide]	–	< 7.00	–	–	–	–	–
O=C(CCCCNc1cccc2nc(C3CC3)n(-c3ccccc3)c(=O)c12)NO [LXIII, 5-((2-cyclopropyl-4-oxo-3-phenyl-3,4-dihydroquinazolin-5-yl)amino)-N-hydroxypentanamide]	–	< 7.00	–	–	–	–	–
CC[C@H](Nc1ncnc2[nH]cnc12)c1nc2cccc(-c3cnc(C(=O)NO)nc3)c2c(=O)n1-c1ccccc1 [XXII, (S)-5-(2-(1-((9H-purin-6-yl)amino)propyl)-4-oxo-3-phenyl-3,4-dihydroquinazolin-5-yl)-N-hydroxypyrimidine-2-carboxamide]	–	–	< 90%	> 90%	< 85%	< 85%	< 85%
CC[C@H](Nc1ncnc2[nH]cnc12)c1nc2cccc(CC(=O)c3ccc(C(=O)Nc4ccccc4N)cc3)c2c(=O)n1-c1ccccc1 [XXIII, (S)-4-(2-(2-(1-((9H-purin-6-yl)amino)propyl)-4-oxo-3-phenyl-3,4-dihydroquinazolin-5-yl)acetyl)-N-(2-aminophenyl)benzamide]	–	–	< 90%	> 90%	< 85%	< 85%	< 85%
CC[C@H](Nc1ncnc2[nH]cnc12)c1nc2cccc(CNC(=O)c3cccc(B(O)O)c3)c2c(=O)n1-c1ccccc1 [XXV, (S)-(3-(((2-(1-((9H-purin-6-yl)amino)propyl)-4-oxo-3-phenyl-3,4-dihydroquinazolin-5-yl)methyl)carbamoyl)phenyl)boronic acid]	–	–	< 90%	> 90%	< 85%	< 85%	< 85%
CC[C@H](Nc1ncnc2[nH]cnc12)c1nc2cccc(NCc3ccc(C(=O)N(C)O)cc3)c2c(=O)n1-c1ccccc1 [XXVII, (S)-4-(((2-(1-((9H-purin-6-yl)amino)propyl)-4-oxo-3-phenyl-3,4-dihydroquinazolin-5-yl)amino)methyl)-N-hydroxy-N-methylbenzamide]	–	< 7.00	–	–	–	–	–
CC[C@H](Nc1ncnc2[nH]cnc12)c1nc(NCCCCCC(=O)NO)c2ccccc2n1 [XXXI, (S)-6-((2-(1-((9H-purin-6-yl)amino)propyl)quinazolin-4-yl)amino)-N-hydroxyhexanamide]	< 7.00	> 7.00	–	–	–	–	–
CC[C@H](Nc1ncnc2[nH]cnc12)c1nc(N2CCN(c3nc(C(=O)NO)cs3)CC2)c2ccccc2n1 [XXXII, (S)-2-(4-(2-(1-((9H-purin-6-yl)amino)propyl)quinazolin-4-yl)piperazin-1-yl)-N-hydroxythiazole-4-carboxamide]	–	–	< 90%	< 90%	< 85%	< 85%	< 85%
CC[C@H](Nc1ncnc2[nH]cnc12)c1nc(N2CCN(c3nc(C(=O)NO)co3)CC2)c2ccccc2n1 [XXXIII, (S)-2-(4-(2-(1-((9H-purin-6-yl)amino)propyl)quinazolin-4-yl)piperazin-1-yl)-N-hydroxyoxazole-4-carboxamide]	–	–	> 90%	< 90%	< 85%	< 85%	< 85%
CC[C@H](Nc1ncnc2[nH]cnc12)c1nc(-c2ccc(C(=O)NO)cc2)c2ccccc2n1 [XXXIV, (S)-4-(2-(1-((9H-purin-6-yl)amino)propyl)quinazolin-4-yl)-N-hydroxybenzamide]	–	–	> 90%	< 90%	< 85%	< 85%	< 85%
